Where only a bound is given, the exact number is not on record here.

Series [1] in a line: Intrinsic metabolic clearance in human liver microsomes at 1 uM. The series is classed as ADME. The note with it: read-out: CLH. A general note: Liver microsomes are a subcellular fraction often used to study metabolism.
Series [2] concerns the target T1, Cytochrome P450 3A4 (Homo sapiens, UniProt P08684). Description: Inhibition of CYP3A4 (unknown origin) using testosterone as marker substrate. The format is ADME.
Series [3] has as its system MDR1. Put plainly: Passive apparent permeability from apical to basolateral side in MDCK cells expressing human MDR1. The format is ADME, cell-based, Canis lupus familiaris. The note with it: dog.
The nature of series [4]: Ratio of drug level in brain to plasma in Wistar rat at 100 mg/kg, po afer 3 hrs. The series is classed as ADME, organism-based. On the set-up: dose 100 mg/kg, route oral. The note with it: read-out: BPR.
The nature of series [5]: Drug level in Wistar rat brain measured per gram of tissue at 100 mg/kg, po after 3 hrs. The series is classed as ADME, organism-based. On the set-up: dose 100 mg/kg, route oral. The settings on record: read-out: Drug uptake.
The target in series [6] is T1, Cytochrome P450 3A4. Description: Inhibition of CYP3A4 (unknown origin). The format is ADME.
Series [7] addresses T2, Cytochrome P450 2C9 (Homo sapiens, UniProt P11712). Description: Inhibition of CYP2C9 (unknown origin). The series is classed as ADME.
Series [8] deals with T3, Cytochrome P450 2D6 (Homo sapiens, UniProt P10635). Description: Inhibition of CYP2D6 (unknown origin). The series is classed as ADME.
The target of series [9] is T1, Cytochrome P450 3A4. Description: Time dependent inhibition of CYP3A4 (unknown origin). The format is ADME.
The target of series [10] is T2, Cytochrome P450 2C9. Put plainly: Time dependent inhibition of CYP2C9 (unknown origin). The series is classed as ADME.
The target in series [11] is T3, Cytochrome P450 2D6. Description: Time dependent inhibition of CYP2D6 (unknown origin). The series is classed as ADME.
Series [12] in a line: Intrinsic metabolic clearance in rat liver microsomes at 1 uM. The series is classed as ADME. The note with it: read-out: CLH.
Series [13] deals with MDR1. Put plainly: Passive apparent permeability from basolateral to apical side in MDCK cells expressing human MDR1. The note with it: dog. The series is classed as ADME, cell-based, Canis lupus familiaris.
The subject of series [14] is Rattus norvegicus. Description: Induction of sleep in Wistar rat assessed as decrease in home cage activity at 100 mg/kg, po after 12 hrs relative to control. The series is classed as functional.
Series [15] deals with Rattus norvegicus. Description: Induction of sleep in Wistar rat assessed as decrease in time spent in active wake at 100 mg/kg, po after 12 hrs relative to control. The series is classed as functional.
The test system of series [16] is Rattus norvegicus. Description: Induction of sleep in Wistar rat assessed as time spent in active wake at 100 mg/kg, po after 12 hrs (reference value: 44.6%). The series is classed as functional.
In series [17] the test system is Rattus norvegicus. Put plainly: Induction of sleep in Wistar rat assessed as time spent in quiet wake at 100 mg/kg, po after 12 hrs (reference value: 19.5%). The series is classed as functional.
Series [18] concerns Rattus norvegicus. Description: Induction of sleep in Wistar rat assessed as time spent in non-REM sleep at 100 mg/kg, po after 12 hrs (reference value: 29.8%). The series is classed as functional.
Series [19] has as its system Rattus norvegicus. Description: Induction of sleep in Wistar rat assessed as time spent in REM sleep at 100 mg/kg, po after 12 hrs (reference value: 6%). The format is functional.
Series [20] has as its system Rattus norvegicus. Put plainly: Induction of sleep in Wistar rat assessed as increase in time spent in non-REM sleep at 100 mg/kg, po after 12 hrs relative to control. The format is functional.
Series [21] relates to Rattus norvegicus. Description: Induction of sleep in Wistar rat assessed as increase in time spent in REM sleep at 100 mg/kg, po after 12 hrs relative to control. The series is classed as functional.
Series [22] has as its target Orexin/Hypocretin receptor type 1 (Homo sapiens, UniProt O43613). Description: Antagonist activity at human orexin 1 receptor expressed in CHO cells assessed as inhibition of orexin-A-induced calcium mobilization by FLIPR assay. The series is classed as functional, cell-based. On the technique in general: A change in cytosolic calcium serves as a functional read-out for many receptors and channels.

Series [23] is described as follows: Drug level in Wistar rat plasma at 100 mg/kg, po after 3 hrs. The format is ADME, organism-based. On the set-up: dose 100 mg/kg, route oral.
Series [24] can be described thus: Plasma protein binding in Wistar rat at 100 mg/kg, po after 3 hrs. The series is classed as ADME, organism-based. On the set-up: dose 100 mg/kg, route oral. The note with it: read-out: PPB.
The target in a further series is Orexin receptor type 2 (Homo sapiens, UniProt O43614). Description: Antagonist activity at human orexin 2 receptor expressed in CHO cells assessed as inhibition of orexin-A-induced calcium mobilization by FLIPR assay. The series is classed as functional, cell-based.
Series [25] has as its system Rattus norvegicus. Put plainly: Induction of sleep in Wistar rat assessed as time spent in active wake at 100 mg/kg, po after 12 hrs (reference value: 30%). The format is functional.
In series [26] the test system is Rattus norvegicus. Put plainly: Induction of sleep in Wistar rat assessed as time spent in quiet wake at 100 mg/kg, po after 12 hrs (reference value: 32.8%). The series is classed as functional.
Series [27] relates to Rattus norvegicus. Description: Induction of sleep in Wistar rat assessed as time spent in non-REM sleep at 100 mg/kg, po after 12 hrs (reference value: 32.1%). The format is functional.
Series [28] relates to Rattus norvegicus. Description: Induction of sleep in Wistar rat assessed as time spent in REM sleep at 100 mg/kg, po after 12 hrs (reference value: 4.7%). The format is functional.

T1 sequence (P08684 whole entry): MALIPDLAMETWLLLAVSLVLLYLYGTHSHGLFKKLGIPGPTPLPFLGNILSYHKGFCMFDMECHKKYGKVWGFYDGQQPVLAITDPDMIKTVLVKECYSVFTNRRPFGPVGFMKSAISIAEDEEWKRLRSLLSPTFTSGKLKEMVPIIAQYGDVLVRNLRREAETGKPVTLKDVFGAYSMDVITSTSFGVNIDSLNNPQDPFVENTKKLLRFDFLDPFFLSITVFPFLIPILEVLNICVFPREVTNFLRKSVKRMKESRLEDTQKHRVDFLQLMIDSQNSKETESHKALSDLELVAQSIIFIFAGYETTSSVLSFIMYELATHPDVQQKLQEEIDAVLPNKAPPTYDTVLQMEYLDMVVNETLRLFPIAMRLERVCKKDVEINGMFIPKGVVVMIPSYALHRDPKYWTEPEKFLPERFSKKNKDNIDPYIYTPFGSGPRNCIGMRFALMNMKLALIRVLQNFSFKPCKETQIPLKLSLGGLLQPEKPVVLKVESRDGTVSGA
Chain of Orexin receptor type 2 (O43614 whole entry, looked up): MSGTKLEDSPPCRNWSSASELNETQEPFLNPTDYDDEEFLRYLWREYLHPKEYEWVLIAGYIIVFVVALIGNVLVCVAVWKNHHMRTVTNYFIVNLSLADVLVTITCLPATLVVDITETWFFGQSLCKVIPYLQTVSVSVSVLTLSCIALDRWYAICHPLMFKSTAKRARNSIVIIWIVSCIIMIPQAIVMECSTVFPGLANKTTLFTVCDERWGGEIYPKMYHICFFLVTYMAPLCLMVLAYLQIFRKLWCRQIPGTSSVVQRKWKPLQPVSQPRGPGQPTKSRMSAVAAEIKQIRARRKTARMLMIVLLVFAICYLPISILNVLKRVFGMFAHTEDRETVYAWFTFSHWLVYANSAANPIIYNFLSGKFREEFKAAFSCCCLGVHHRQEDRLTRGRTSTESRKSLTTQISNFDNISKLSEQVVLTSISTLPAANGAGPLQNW
Chain of Orexin/Hypocretin receptor type 1 (O43613 whole entry, looked up): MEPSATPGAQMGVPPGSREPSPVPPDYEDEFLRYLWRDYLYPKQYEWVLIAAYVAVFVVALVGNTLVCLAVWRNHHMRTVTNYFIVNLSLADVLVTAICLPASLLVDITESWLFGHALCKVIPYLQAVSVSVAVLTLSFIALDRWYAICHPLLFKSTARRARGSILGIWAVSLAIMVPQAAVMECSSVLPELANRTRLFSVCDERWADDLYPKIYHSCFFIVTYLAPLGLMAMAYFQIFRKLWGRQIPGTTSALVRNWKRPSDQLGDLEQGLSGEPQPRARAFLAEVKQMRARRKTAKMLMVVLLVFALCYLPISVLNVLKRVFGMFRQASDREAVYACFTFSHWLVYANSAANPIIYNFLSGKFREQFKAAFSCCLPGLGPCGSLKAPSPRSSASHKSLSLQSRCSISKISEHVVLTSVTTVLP
T2 sequence (P11712 whole entry): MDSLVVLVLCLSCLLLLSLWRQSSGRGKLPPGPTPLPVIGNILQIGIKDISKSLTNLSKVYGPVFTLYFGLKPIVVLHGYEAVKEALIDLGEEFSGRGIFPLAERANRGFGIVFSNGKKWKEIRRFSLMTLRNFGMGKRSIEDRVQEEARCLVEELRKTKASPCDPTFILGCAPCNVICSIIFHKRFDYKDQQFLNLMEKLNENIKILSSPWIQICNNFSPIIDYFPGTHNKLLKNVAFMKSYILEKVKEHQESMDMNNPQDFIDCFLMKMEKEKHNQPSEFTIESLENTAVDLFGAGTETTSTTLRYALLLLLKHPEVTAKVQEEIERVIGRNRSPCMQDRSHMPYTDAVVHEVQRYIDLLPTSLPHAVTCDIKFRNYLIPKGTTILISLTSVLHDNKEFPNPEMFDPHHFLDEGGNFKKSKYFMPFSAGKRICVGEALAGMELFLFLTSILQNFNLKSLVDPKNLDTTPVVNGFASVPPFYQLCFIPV
T3 sequence (P10635 whole entry): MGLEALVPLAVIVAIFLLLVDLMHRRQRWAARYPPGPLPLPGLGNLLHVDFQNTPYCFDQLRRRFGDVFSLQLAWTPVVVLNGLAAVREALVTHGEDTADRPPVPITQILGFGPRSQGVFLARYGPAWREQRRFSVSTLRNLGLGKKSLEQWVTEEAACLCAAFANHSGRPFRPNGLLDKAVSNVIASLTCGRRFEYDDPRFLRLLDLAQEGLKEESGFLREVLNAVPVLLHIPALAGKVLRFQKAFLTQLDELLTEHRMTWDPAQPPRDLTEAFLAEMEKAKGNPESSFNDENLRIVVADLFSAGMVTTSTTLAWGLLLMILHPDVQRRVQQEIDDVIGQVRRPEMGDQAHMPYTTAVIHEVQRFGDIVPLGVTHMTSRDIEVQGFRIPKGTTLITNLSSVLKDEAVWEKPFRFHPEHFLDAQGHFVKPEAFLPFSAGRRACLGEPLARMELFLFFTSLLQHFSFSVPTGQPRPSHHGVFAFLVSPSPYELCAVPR

Take `COc1cccc(F)c1[C@@H]1C[C@@H](O)C(=O)N1Cc1ccc2oc3ccccc3c2c1`: the figures for the microsomal CLint at 1 µM in [1] and in series [12] were 102 µL/min/mg and over 1250 µL/min/mg, respectively. In addition, the concentration for half-maximal inhibition (IC50) (usually the concentration at which inhibition is half-maximal) at Cytochrome P450 3A4 [2] is over 50 µM; at Cytochrome P450 3A4 [6], over 50 µM; at Cytochrome P450 2C9 [7], 9.4 µM; on Cytochrome P450 2D6 [8], 47 µM. Further, in the series with MDR1 [3], the apparent permeability from apical to basolateral (Papp A→B) (commonly the apparent permeability from the apical to the basolateral side of a cell layer) came to 12.5 ×10⁻⁶ cm/s. Besides, the Kp at 3 h in [4] stood at 2.3. Also, the concentration at 3 h in series [5] amounted to 585 ng/g. The TDI result at Cytochrome P450 3A4 [9], on Cytochrome P450 2C9 [10] and at Cytochrome P450 2D6 [11] was “Not Active” throughout. The Papp B→A (usually how fast a substance crosses the layer from the basolateral side) in the series with MDR1 [13] is 26.6 ×10⁻⁶ cm/s. In addition, the inhibition in vivo (in general, how much of the control response was suppressed) at 100 mg/kg amounted to 35% in the series with Rattus norvegicus [14] and 20% in the series on Rattus norvegicus [15]. The Activity with Rattus norvegicus [16] was 39.2%; in the series with Rattus norvegicus [17] it was 19.2%; with Rattus norvegicus [18], 34.4%; in the series with Rattus norvegicus [19], 7.1%; in the series with Rattus norvegicus [20], 20%; with Rattus norvegicus [21] it was 38%.
In the case of `COc1cccc(F)c1C1C[C@@H](O)C(=O)N1Cc1ccc2oc3ccccc3c2c1` (mixture of isomers), in series [1], the microsomal CLint at 1 µM was determined as 96 µL/min/mg. Also, at Cytochrome P450 3A4 [2], the IC50 is 46 µM.
In the case of `COc1cccc(OC)c1[C@@H]1C[C@H](C)C(=O)N1Cc1ccc(OC(F)(F)F)cc1` (racemic), the IC50 against Cytochrome P450 3A4 [2] came out at 8.7 µM.
Consider `COc1cccc(OC)c1[C@@H]1C[C@@H](C)C(=O)N1Cc1ccc(OC(F)(F)F)cc1` (racemic), for which the microsomal CLint at 1 µM in series [1] turned out to be 257 µL/min/mg.
With `CC[C@H]1C[C@@H](c2c(OC)cccc2OC)N(Cc2ccc(OC(F)(F)F)cc2)C1=O` (racemic), the IC50 in series [22] was determined as 3.61 µM.
As to `COc1cccc(OC)c1[C@@H]1C[C@H](Cl)C(=O)N1Cc1ccc(OC(F)(F)F)cc1` (racemic), the IC50 in series [22] was 0.041 µM; on Cytochrome P450 3A4 [2] it was 6.6 µM. Further, in [1], the microsomal CLint at 1 µM amounted to 277 µL/min/mg.
On to `COc1cccc(OC)c1[C@@H]1C[C@@H](Cl)C(=O)N1Cc1ccc(OC(F)(F)F)cc1` (racemic), for which, in series [22], the concentration for half-maximal inhibition (IC50) was determined as 0.563 µM.
`COc1cccc(OC)c1[C@@H]1C[C@H](F)C(=O)N1Cc1ccc(OC(F)(F)F)cc1` (racemic): in [1], the microsomal CLint at 1 µM stood at 233 µL/min/mg. Also, the Kp at 3 h in [4] was 3.1. Also, the figures for the concentration at 3 h in series [5] and in [23] were 270 ng/g and 87 ng/mL, respectively. In [24], the fraction unbound at 3 h stood at 0.01.
For the molecule `COc1cccc(OC)c1C1CC(F)(F)C(=O)N1Cc1ccc(OC(F)(F)F)cc1` (racemic), the microsomal CLint at 1 µM in series [1] was determined as 232 µL/min/mg. Besides, the IC50 at Cytochrome P450 3A4 [2] worked out at 5.2 µM.
Taken in the same sequence, the figures for `COc1cccc(OC)c1[C@@H]1C[C@@H](O)C(=O)N1Cc1ccc(OC(F)(F)F)cc1` (racemic) were 142 µL/min/mg and 25 µM.
`COc1cccc(OC)c1[C@@H]1C[C@H](OC)C(=O)N1Cc1ccc(OC(F)(F)F)cc1` (racemic): the 50% inhibitory concentration (IC50) in [22] was 0.168 µM; against Cytochrome P450 3A4 [2], 1.4 µM.
In the case of `CCO[C@H]1C[C@@H](c2c(OC)cccc2OC)N(Cc2ccc(OC(F)(F)F)cc2)C1=O` (racemic), the IC50 on Orexin receptor type 2 was 3.96 µM; in series [22], over 10 µM.
Consider `COc1cccc(OC)c1[C@@H]1C[C@@H](OC)C(=O)N1Cc1ccc(OC(F)(F)F)cc1` (racemic), for which, in series [22], the IC50 amounted to 6.94 µM.
Regarding `COc1cccc(OC)c1[C@@H]1C[C@H](N)C(=O)N1Cc1ccc(OC(F)(F)F)cc1` (racemic), the results for the IC50 (at Orexin receptor type 2; in [22]) were 7.03 µM and 9.49 µM, respectively.
`COc1cccc(OC)c1[C@@H]1C[C@@H](N)C(=O)N1Cc1ccc(OC(F)(F)F)cc1` (racemic): the IC50 at Orexin receptor type 2 was found to be 1.98 µM; in series [22] it was 2.05 µM.
With `CN[C@H]1C[C@@H](c2c(OC)cccc2OC)N(Cc2ccc(OC(F)(F)F)cc2)C1=O` (racemic), the values for the IC50 (on Orexin receptor type 2; in series [22]) were 5.78 µM and over 10 µM, respectively.
Taken in the same sequence, the figures for `CN[C@@H]1C[C@@H](c2c(OC)cccc2OC)N(Cc2ccc(OC(F)(F)F)cc2)C1=O` (racemic) were 2.4 µM and 5.81 µM.
The like results for `COc1cccc(OC)c1[C@@H]1C[C@H](N(C)C)C(=O)N1Cc1ccc(OC(F)(F)F)cc1` (racemic) were, in that order, 8.72 µM and 8.3 µM.
Taken in the same sequence, the figures for `COc1cccc(OC)c1[C@@H]1C[C@@H](N(C)C)C(=O)N1Cc1ccc(OC(F)(F)F)cc1` (racemic) were 3.62 µM and over 10 µM.
On to `COc1cccc(OC)c1C1CCC(=O)N1Cc1ccc2oc3ccccc3c2c1` (racemic), for which the microsomal CLint at 1 µM in [1] turned out to be 577 µL/min/mg. This molecule also showed an IC50 on Cytochrome P450 3A4 [2] of 6.9 µM.
Take `COc1cccc(OC)c1[C@@H]1C[C@H](F)C(=O)N1Cc1ccc2oc3ccccc3c2c1` (racemic): the microsomal CLint at 1 µM in [1] was found to be 363 µL/min/mg. Moreover, on Cytochrome P450 3A4 [2], the IC50 is 8.8 µM.
Consider `COc1cccc(OC)c1[C@@H]1C[C@H](Cl)C(=O)N1Cc1ccc2oc3ccccc3c2c1` (racemic), for which, in series [22], the IC50 was determined as 0.005 µM.
On to `COc1cccc(OC)c1[C@@H]1C[C@@H](O)C(=O)N1Cc1ccc2oc3ccccc3c2c1` (racemic), for which the IC50 in series [22] was 0.004 µM. For the same molecule, the microsomal CLint at 1 µM in series [1] amounted to 128 µL/min/mg.
As to `COc1cccc(F)c1[C@@H]1C[C@H](F)C(=O)N1Cc1ccc2oc3ccccc3c2c1` (racemic), in series [1], the microsomal CLint at 1 µM came to 349 µL/min/mg. The molecule further came in with an IC50 on Cytochrome P450 3A4 [2] of 21 µM.
For `CNC(=O)[C@@H](c1ccccc1)N1CCc2cc(OC)c(OC)cc2[C@@H]1CCc1ccc(C(F)(F)F)cc1` [ALMOREXANT], the inhibition in vivo at 100 mg/kg with Rattus norvegicus [14] stood at 43%. The Activity in the series on Rattus norvegicus [25] came to 24%; in the series on Rattus norvegicus [26], 31%; in the series with Rattus norvegicus [27], 38.5%; with Rattus norvegicus [28], 6.5%.

The values are drawn from ChEMBL document CHEMBL3407375, “Substituted pyrrolidin-2-ones: Centrally acting orexin receptor antagonists promoting sleep. Part 2” (Bioorg Med Chem Lett, 2015).
